Experimental findings from patent publication US20080318931A1, “Treatment of Disorders and Diseases of the Colon” (priority 2004, published 2008) are described below.

The IC50 is the point on the concentration scale where inhibition reaches its midpoint. A higher IC50 goes with a need for much substance.

Data set [1] concerns mouse splenocytes (basal). Kind of data set: Basal mouse splenocyte viability, alamar blue. In kind it is cell-based. To be noted: 2.5-10 μM, 48 hr. As to the method: Mouse splenocytes were isolated from C57b1 healthy female mice. Cells (10,000/well) were tested under basal and ConA stimulation. Cells were treated with vehicle, dexamethasone or antidepressants (2.5-10 μM). Viability was assessed 48 hr later using alamar blue staining. (Reagents were manufactured by Wildflower, Santa Fe, N. Mex., USA.) Alamar blue assay was performed as in Nociari et al (1998).

Data set [2] has as its system splenocytes derived from treated mice. Kind of data set: ConA/basal proliferation ratio of splenocytes from mice treated in vivo for 7 days. To be noted: paroxetine 7.5, clomipramine 15 mg/kg x3/week i.p., Con A 5 μM in vitro. On the set-up: species or system mouse. The method, then:
Paroxetine or clomipramine were administered at 7.5 and 15 mg/kg x3/week i.p, respectively. Splenocytes were derived from treated animals.
Each group represents the mean of a pool of 5 animals.

The test system of data set [3] is human lymphocytes (PBMC). Kind of data set: PHA-induced human lymphocyte proliferation, alamar blue. To be noted: PHA 2.5 μg/ml, 48 hours. The class given is cell-based. The method, then: Human blood mononuclear cells (PBMC) were isolated from whole blood of 3 healthy volunteers using Ficoll-Paque gradient (Amersham Sweden). Lymphocyte proliferation was induced by exposure of 1×10^6 cells/well to phytohemagglutinin (PHA) (2.5 μg/ml). Cells were exposed to PHA and treated with vehicle or with paroxetine (2.5-10.0 μM). Cell viability was assessed 48 hours post exposure to paroxetine (2.5-10.0 μM) using Alamar blue reagent (Wildflower, Santa Fe, N. Mex., USA) according to Nociari et al (1998).

The test system of data set [4] is human PBMC. In words: Viability of LPS-exposed human PBMC, alamar blue. In kind it is cell-based. To be noted: LPS 2 ug/well, 2.5-30 μM, 48 hours, both subjects.
Method: Human PBMC were isolated from whole blood of 2 healthy volunteers (A and B subjects). Cells (2×10^6/ml) were exposed to LPS (2 ug/well) and treated with either the vehicle, or with paroxetine, sertraline, clomipramine and trifluoperazine (2.5-30 μM).
In data set [5] the test system is Human Colon carcinoma (HT29) cell-line. In words: Viability of human colon carcinoma HT29 cells, alamar blue and neutral red. The following applies: 10-30 μM, FIG. 14. In kind it is cell-based. The method, then: Human Colon carcinoma (HT29) cell-line (ATCC USA) was maintained in RPMI medium supplemented with 10% fetal calf serum and penicillin (100 u/ml), streptomycin (100 mcg/ml), nystatin (12.5 u/ml), L-glutamine (2 mM). Confluent cultures were washed with phosphate-buffered saline (PBS), detached with trypsine (0.25%), centrifuged, and subcultured in 96-well microtiter test plates. Cells were exposed to vehicle or to psychotropic drugs. Cell viability was measured 24 hours later using the alamar blue and neutral red methods. Results were expressed as % of controls (vehicle treated cells). Each sample is the Mean+/−[…] of 4 determinations.
In general terms: Resazurin is reduced to fluorescent resorufin, in cell work by metabolically active cells.

For data set [6], the system named is C-jun. Kind of data set: C-jun expression in HT29 cells, western blot. The following applies: 10 and 20 μM, 24 hr. The class given is cell-based, human. The method, then: The effect of paroxetine and sertraline on the expression of bcl-2 and C-jun was evaluated in human colon HT29 cell-line 24 hr after drug administration, using western blot analysis for C-jun and bcl-2 and specific antibodies.
For orientation: Immunoblotting shows a protein as a band on a membrane.

The structures appear in SMILES notation.

In the case of `Fc1ccc([C@@H]2CCNC[C@H]2COc2ccc3c(c2)OCO3)cc1` [paroxetine], the basal splenocyte proliferation result in data set [1] is reported as “dose dependent decrease”. For the same molecule, the “capacity to respond to Con-A (ratio ConA/basal) vs vehicle treated mice” value in data set [2] is “not”. The same molecule registered a half-maximal inhibitory concentration (IC50) in data set [3] of 5 to 10 µM. The “order of potency, decrease in cell viability” value in data set [4] is reported as “sertraline>paroxetine>trifluoperazine>/=clomipramine”. In data set [5], the “inhibition of cell viability” value amounted to 64%. Besides, the “expression of C-jun” value in data set [6] was “stimulation”.
